Reference: patent publication US20090047246A1, “NOVEL INHIBITORS OF HEPATITIS C VIRUS REPLICATION” (InterMune, Inc., priority 2007, published 2009)
Like-named read-outs stand apart in the source and are kept apart here.

Molecular target: T1, HCV NS3 helicase (Hepatitis C virus genotype 1b, UniProt P26663)
T1 construct: full-length NS3 (1-631), purified at Array BioPharma
Assay: HCV Helicase Prompt FRET Assay (Example A)
Type: biochemical
Details: read-out: IC50 Activity
In short: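 Initial unwinding rates, monitored as FAM fluorescence gain (ex 485, em 535) over ~30 min at room temperature, gave IC50 via 4- or 5-parameter logistic fits. Reactions: 50 nM quenched duplex, 250 nM capture strand, 300 μM ATP, 5–6 nM NS3 1-631 after 5 min compound preincubation, MOPS pH 7.0 buffer, 2% DMSO.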

[1] = HCV NS3 helicase, tables do not say whether Example A or Example B assay

T1 sequence (P26663 1027-1657): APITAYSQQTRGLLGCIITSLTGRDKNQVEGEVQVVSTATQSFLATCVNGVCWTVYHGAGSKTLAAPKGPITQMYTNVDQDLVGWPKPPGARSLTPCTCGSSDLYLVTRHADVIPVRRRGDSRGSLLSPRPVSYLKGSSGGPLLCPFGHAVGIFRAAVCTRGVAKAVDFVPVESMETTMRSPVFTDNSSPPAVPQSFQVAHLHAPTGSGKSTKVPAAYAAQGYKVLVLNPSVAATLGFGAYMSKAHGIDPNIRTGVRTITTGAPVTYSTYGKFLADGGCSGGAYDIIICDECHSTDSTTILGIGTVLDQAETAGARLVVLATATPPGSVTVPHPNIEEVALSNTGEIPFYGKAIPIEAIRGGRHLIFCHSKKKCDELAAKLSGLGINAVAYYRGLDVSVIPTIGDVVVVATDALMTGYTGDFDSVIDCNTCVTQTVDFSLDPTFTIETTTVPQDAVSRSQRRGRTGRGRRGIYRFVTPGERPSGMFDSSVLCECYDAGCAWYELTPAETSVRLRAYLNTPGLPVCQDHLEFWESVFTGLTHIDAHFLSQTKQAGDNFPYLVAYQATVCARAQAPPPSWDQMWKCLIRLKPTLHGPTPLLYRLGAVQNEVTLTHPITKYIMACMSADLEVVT

Compound | IC50 [1] [µM] | IC50 (numeric bound instead of class symbol) [µM]
Cc1cc([N+](=O)[O-])ccc1N1CC(CC(=O)O)c2cc(Br)ccc21 (centres unmarked) [Example 395] | 10 to 50 | –
COC(=O)C(c1ccc([N+](=O)[O-])cc1C)c1cn(-c2ccc([N+](=O)[O-])cc2C)c2ccc(Br)cc12 (centres unmarked) [Example 396] | < 10 | –
COC(=O)C(Cc1ccccc1)c1cn(-c2ccc([N+](=O)[O-])cc2C)c2ccc(Br)cc12 (centres unmarked) [Example 397] | > 50 | –
Cc1cc([N+](=O)[O-])ccc1-n1cc(C(Cc2ccccc2)C(=O)O)c2cc(Br)ccc21 (centres unmarked) [Example 398] | < 10 | –
Cc1cc([N+](=O)[O-])ccc1Cc1cn(-c2ccc([N+](=O)[O-])cc2C)c2ccc(Br)cc12 [Example 399] | 10 to 50 | –
COC(=O)C(c1ccc([N+](=O)[O-])cc1C)C1CN(c2ccc([N+](=O)[O-])cc2C)c2ccc(Br)cc21 (centres unmarked) [Example 400] | 10 to 50 | –
Cc1cc([N+](=O)[O-])ccc1-n1cc(C(=O)C(=O)N2CCCC2)c2cc(Br)ccc21 [Example 401] | > 50 | –
Cc1cc([N+](=O)[O-])ccc1-n1cc(C(O)(C(=O)N2CCCC2)C(F)(F)F)c2cc(Br)ccc21 (centres unmarked) [Example 402] | > 50 | –
COC(=O)C(c1ccc([N+](=O)[O-])cc1C)C1CN(c2ccc([N+](=O)[O-])cc2C)c2ccc(Br)cc21 (centres unmarked) [Example 403] | – | > 20
Cc1cc([N+](=O)[O-])ccc1C(C(=O)O)C1CN(c2ccc([N+](=O)[O-])cc2C)c2ccc(Br)cc21 (centres unmarked) [Example 404] | 10 to 50 | –
Cc1cc([N+](=O)[O-])ccc1CC1CN(c2ccc([N+](=O)[O-])cc2C)c2ccc(Br)cc21 (centres unmarked) [Example 405] | 10 to 50 | –
Cc1cc([N+](=O)[O-])ccc1C(C(=O)O)C1CN(c2ccc([N+](=O)[O-])cc2C)c2ccc(Br)cc21 (centres unmarked) [Example 406] | 10 to 50 | –
COC(=O)C(Cc1ccc(C(C)C)cc1)c1cn(-c2ccc([N+](=O)[O-])cc2C)c2ccc(Br)cc12 (centres unmarked) [Example 407] | > 50 | –
Cc1cc([N+](=O)[O-])ccc1-n1cc(C(Cc2ccc(C(C)C)cc2)C(=O)O)c2cc(Br)ccc21 (centres unmarked) [Example 408] | 10 to 50 | –
COC(=O)C(Cc1ccccc1)c1cn(Cc2ccc(C(C)C)cc2)c2ccc(Br)cc12 (centres unmarked) [Example 409] | > 50 | –
CC(C)c1ccc(Cn2cc(C(Cc3ccccc3)C(=O)O)c3ccccc32)cc1 (centres unmarked) [Example 410] | < 10 | –
O=C(O)C(Cc1c[nH]c2ccc(Br)cc12)c1c[nH]c2ccc(Br)cc12 (centres unmarked) [Example 411] | 10 to 50 | –
CCOC(=O)Cc1c(-c2ccccc2)n(Cc2csc3ccc(Cl)cc23)c2ccccc12 [Example 412] | > 50 | –
CCOC(=O)C(Cc1ccccc1)c1c(-c2ccccc2)n(Cc2csc3ccc(Cl)cc23)c2ccccc12 (centres unmarked) [Example 413] | > 50 | –
O=C(O)Cc1c(-c2ccccc2)n(Cc2csc3ccc(Cl)cc23)c2ccccc12 [Example 414] | < 10 | –
O=C(O)C(Cc1ccccc1)c1c(-c2ccccc2)n(Cc2csc3ccc(Cl)cc23)c2ccccc12 (centres unmarked) [Example 415] | < 10 | –
Cc1cc([N+](=O)[O-])ccc1-n1cc(C(CC2CC2)C(=O)O)c2ccccc21 (centres unmarked) [Example 416] | 10 to 50 | –
CC(C)c1ccc(Cn2cc(C(=O)C(=O)O)c3ccccc32)cc1 [Example 417] | 10 to 50 | –
CC(C)c1ccc(Cn2cc(C(N)C(=O)O)c3ccccc32)cc1 (centres unmarked) [Example 418] | > 50 | –
CC(C)c1ccc(Cn2cc(C(NC(=O)OC(C)(C)C)C(=O)O)c3ccccc32)cc1 (centres unmarked) [Example 419] | 10 to 50 | –

Compound | IC50 [1] [µM] | IC50 (numeric bound instead of class symbol) [µM]
CC(=O)NC(C(=O)O)c1cn(Cc2ccc(C(C)C)cc2)c2ccccc12 (centres unmarked) [Example 420] | 10 to 50 | –
COC(=O)C(NC(=O)c1c[nH]cn1)c1cn(Cc2ccc(C(C)C)cc2)c2ccccc12 (centres unmarked) [Example 421] | > 50 | –
CC(C)c1ccc(Cn2cc(C(NC(=O)c3c[nH]cn3)C(=O)O)c3ccccc32)cc1 (centres unmarked) [Example 422] | 10 to 50 | –
CC(C)c1ccc(Cn2cc(C(NC(N)=O)C(=O)O)c3ccccc32)cc1 (centres unmarked) [Example 423] | 10 to 50 | –
CC(C)c1ccc(Cn2cc(CC(=O)O)c3ccccc32)cc1 [Example 424] | 10 to 50 | –
CN(Cc1ccccc1)c1ccc(-n2cc(C(O)(C(=O)O)C(F)(F)F)c3ccccc32)cc1 (centres unmarked) [Example 425] | < 10 | –
CCOC(=O)c1c(CC(=O)O)c2cc(Br)ccc2n1Cc1ccc(C(C)C)cc1 [Example 427] | 10 to 50 | –
CC(C)c1ccc(Cn2c(C(=O)N3CCOCC3)c(CC(=O)O)c3cc(Br)ccc32)cc1 [Example 428] | > 50 | –
CC(C)c1ccc(Cn2c(C(=O)N3CCNC(=O)C3)c(CC(=O)O)c3cc(Br)ccc32)cc1 [Example 429] | > 50 | –
CC(C)c1ccc(Cn2c(C(=O)N3CCNCC3)c(CC(=O)O)c3cc(Br)ccc32)cc1 [Example 430] | > 50 | –
CC(C)c1ccc(Cn2c(C(=O)N3CCCC3)c(CC(=O)O)c3cc(Br)ccc32)cc1 [Example 431] | 10 to 50 | –
CCN(CC)C(=O)c1c(CC(=O)O)c2cc(Br)ccc2n1Cc1ccc(C(C)C)cc1 [Example 432] | 10 to 50 | –
CC(C)NC(=O)c1c(CC(=O)O)c2cc(Br)ccc2n1Cc1ccc(C(C)C)cc1 [Example 433] | 10 to 50 | –
CC(C)c1ccc(Cn2c(C(=O)NC3CC3)c(CC(=O)O)c3cc(Br)ccc32)cc1 [Example 434] | 10 to 50 | –
CC(C)c1ccc(Cn2c(C(=O)NC3CCCCC3)c(CC(=O)O)c3cc(Br)ccc32)cc1 [Example 435] | 10 to 50 | –
CC(C)c1ccc(Cn2c(C(=O)NC3CCN(C(=O)OC(C)(C)C)CC3)c(CC(=O)O)c3cc(Br)ccc32)cc1 [Example 436] | < 10 | –
CC(C)c1ccc(Cn2c(C(=O)NC3CCNCC3)c(CC(=O)O)c3cc(Br)ccc32)cc1 [Example 438] | 10 to 50 | –
CC(C)c1ccc(Cn2c(C(=O)NCCc3ccccn3)c(CC(=O)O)c3ccccc32)cc1 [Example 439] | 10 to 50 | –
CC(C)c1ccc(Cn2c(C(=O)NCc3ccccc3)c(CC(=O)O)c3cc(Br)ccc32)cc1 [Example 440] | 10 to 50 | –
CC(C)c1ccc(Cn2c(C(=O)NCc3ccc(-c4ccccc4)cc3)c(CC(=O)O)c3cc(Br)ccc32)cc1 [Example 441] | 10 to 50 | –
CC(C)c1ccc(Cn2c(C(=O)NCc3ccc(S(N)(=O)=O)cc3)c(CC(=O)O)c3ccccc32)cc1 [Example 442] | 10 to 50 | –
CC(C)c1ccc(Cn2c(C(=O)NCc3ccc(S(C)(=O)=O)cc3)c(CC(=O)O)c3cc(Br)ccc32)cc1 [Example 443] | < 10 | –
Cc1ccc(CNC(=O)c2c(CC(=O)O)c3cc(Br)ccc3n2Cc2ccc(C(C)C)cc2)o1 [Example 444] | 10 to 50 | –
CC(C)c1ccc(Cn2c(C(=O)NCc3cccc(-c4ccccc4)c3)c(CC(=O)O)c3cc(Br)ccc32)cc1 [Example 445] | < 10 | –
CC(C)c1ccc(Cn2c(C(=O)NCc3ccc(Oc4ccccc4)cc3)c(CC(=O)O)c3cc(Br)ccc32)cc1 [Example 446] | < 10 | –

Compound | IC50 [1] [µM] | IC50 (numeric bound instead of class symbol) [µM]
CC(C)c1ccc(Cn2c(C(=O)NCc3ccc([N+](=O)[O-])cc3)c(CC(=O)O)c3ccccc32)cc1 [Example 447] | < 10 | –
CC(C)c1ccc(Cn2c(C(=O)NCc3nc4ccccc4[nH]3)c(CC(=O)O)c3cc(Br)ccc32)cc1 [Example 448] | < 10 | –
CC(C)c1ccc(Cn2c(C(=O)NCc3nc4ccccc4[nH]3)c(CC(=O)O)c3ccccc32)cc1 [Example 449] | < 10 | –
CC(C)c1ccc(Cn2c(C(=O)NCc3ccc(Cl)cc3)c(CC(=O)O)c3ccccc32)cc1 [Example 450] | < 10 | –
CC(C)c1ccc(Cn2c(C(=O)NCc3cccc(Cl)c3)c(CC(=O)O)c3ccccc32)cc1 [Example 451] | < 10 | –
CC(C)c1ccc(Cn2c(C(=O)NCc3ccc(F)cc3)c(CC(=O)O)c3ccccc32)cc1 [Example 452] | < 10 | –
CC(C)c1ccc(Cn2c(C(=O)NCc3cccc(F)c3)c(CC(=O)O)c3ccccc32)cc1 [Example 453] | < 10 | –
CC(C)c1ccc(Cn2c(C(=O)NCc3ccc(OC(F)(F)F)cc3)c(CC(=O)O)c3ccccc32)cc1 [Example 454] | < 10 | –
CC(C)c1ccc(Cn2c(C(=O)NCc3ccc(C(F)(F)F)cc3)c(CC(=O)O)c3ccccc32)cc1 [Example 455] | < 10 | –
CC(C)c1ccc(Cn2c(C(=O)Nc3ccccc3)c(CC(=O)O)c3cc(Br)ccc32)cc1 [Example 456] | < 10 | –
CC(C)c1ccc(Cn2c(C(=O)Nc3cccc(S(C)(=O)=O)c3)c(CC(=O)O)c3ccccc32)cc1 [Example 460] | < 10 | –
CC(C)c1ccc(Cn2c(C(=O)Nc3ccc(S(C)(=O)=O)cc3)c(CC(=O)O)c3ccccc32)cc1 [Example 461] | < 10 | –
CC(C)c1ccc(Cn2c(C(=O)Nc3cccc(NS(C)(=O)=O)c3)c(CC(=O)O)c3ccccc32)cc1 [Example 462] | < 10 | –
CC(C)c1ccc(Cn2c(C(=O)Nc3cccnc3)c(CC(=O)O)c3ccccc32)cc1 [Example 463] | 10 to 50 | –
O=C(O)c1cccc2c1c1ccccc1n2Cc1ccccc1 [Example 465] | > 50 | –
O=C(O)c1cccc2[nH]c3ccccc3c12 [Example 467] | > 50 | –
Cc1cc([N+](=O)[O-])ccc1-n1c2ccccc2c2c(C(=O)O)cccc21 [Example 470] | > 50 | –
Cc1cc([N+](=O)[O-])ccc1-n1c2ccc(Br)cc2c2c(C(=O)O)cccc21 [Example 471] | 10 to 50 | –
O=C(O)Cc1cn(Cc2cccc(Oc3ccccc3F)c2)c2ccccc12 [Example 472] | < 10 | –
O=C(O)Cc1cn(Cc2cccc(Oc3cccc(F)c3)c2)c2ccccc12 [Example 473] | < 10 | –
O=C(O)Cc1cn(Cc2cccc(Oc3ccc(F)cc3)c2)c2ccccc12 [Example 474] | < 10 | –
O=C(O)Cc1cn(Cc2cccc(Oc3ccccc3Cl)c2)c2ccccc12 [Example 475] | < 10 | –
O=C(O)Cc1cn(Cc2cccc(Oc3cccc(Cl)c3)c2)c2ccccc12 [Example 476] | < 10 | –
O=C(O)Cc1cn(Cc2cccc(Oc3ccc(Cl)cc3)c2)c2ccccc12 [Example 477] | < 10 | –
